Usually pKa stands for the negative logarithm of the acid dissociation constant. By Kd is commonly meant the free concentration of one partner at which half of the binding sites on the other are occupied at equilibrium, for simple one-to-one binding.

Data set [1] is described as follows: Fluorescence excitation/emission spectra and quantum efficiency. The class given is physicochemical. The protocol: (§1) • Footnote a: For molecular structures, see Fig. 1. • Footnote b: Except where otherwise noted, these dissociation constants were measured with the chelator dissolved in 0.1 M tetramethylammonium chloride, at a pH held high enough with 1-5 mM tris(hydroxymethyl)aminomethane for protonation to be insignificant. The absorbance spectrum, or the fluorescence excitation spectrum for those compounds (2GG, 2NN, 2OO, 2PP, 3NN) with acronyms was measured as a function of the concentration of cation added as a solid or concentrated aqueous solution of the halide salt. No correction has been made for the changing ionic strength of the solution, which started from 0.1 M and increased, but the absorbances and fluorescence amplitudes were applied for dilution of the dye and any slight quenching due to high concentrations of Cl⁻. • Footnote c: These protonation constants were determined in 0.1 M tetramethylammonium chloride, 10 mM tris(hydroxymethyl)aminomethane, titrated with 5 M H₃PO₄ to successively lower pH values measured with a Radiometer PHM84 meter. […] The first number is the wavelength in nanometers, followed in parentheses by 10⁻³ x the corresponding extinction coefficient, M⁻¹cm⁻¹. […] Emission maxima are not corrected for the spectral sensitivity of the emission detection. Quantum efficiencies were measured (13) by comparing the integral of the corrected emission spectrum with the corresponding integral for a solution of quinine bisulfate in 1 N H₂SO₄ of matched absorbance at the excitation wavelength.
(§2) UV absorbance spectra were recorded initially on a Cary 210 and later on a Perkin-Elmer Lambda Array 3840 spectrophotometer. Fluorescence excitation and emission spectra and quantum efficiencies were measured on a Spex Fluorolog 111 as described previously (13).

Data set [2] can be described thus: Cation titration followed by absorbance or fluorescence excitation spectra: Na⁺ binding. The conditions noted are these: 0.1 M tetramethylammonium chloride, 1-5 mM tris(hydroxymethyl)aminomethane, pH high enough for protonation to be insignificant, 22°; read-out: Dissociation constants (Kd) in mM for Na⁺. How it is done:
as §1
(§3) Affinities for other cations were usually measured by titrating aqueous solutions of the indicator with metal chlorides added either as solid or from concentrated stock solutions, taking care to minimize dilution and correct for it. A convenient way to mass-produce premeasured micromole to millimole aliquots of solid NaCl or KCl was to pipet saline solutions into polypropylene micro test tubes and evaporate the water in an oven. The standard ionic background was again 100 mM tetramethylammonium chloride, usually with a few mM of tris(hydroxymethyl)-aminomethane base to hold the pH high enough (pH 8-9) to insure that protonation was negligible. This convenient titration procedure had the slight disadvantage that the ionic strength was not constant, especially when large quantities of a salt had to be added due to weak affinities. […] When constant ionic strength was desired, the chelator was made up at identical concentrations in matched solutions of NaCl, KCl, or tetramethylammonium chloride, then these stocks were mixed in the desired proportions. All measurements were made at room temperature (22°, ±2° C).

Data set [3] can be described thus: Cation titration followed by absorbance or fluorescence excitation spectra: Ca²⁺ binding. The conditions noted are these: 0.1 M tetramethylammonium chloride, 1-5 mM tris(hydroxymethyl)aminomethane, high pH; read-out: Dissociation constants (Kd) in mM for Ca²⁺. The protocol: as §1, §3
Data set [4] in a line: Cation titration followed by absorbance or fluorescence excitation spectra: Mg²⁺ binding. The note with it: 0.1 M tetramethylammonium chloride, 1-5 mM tris(hydroxymethyl)aminomethane, high pH; read-out: Dissociation constants (Kd) in mM for Mg²⁺. The protocol:
as §1
as §3, with “proportions.” for “proportions. All measurements were made at room temperature (22°, ±2° C).”

A short description of data set [5]: UV absorbance spectra without and with saturating cation. The class given is physicochemical. The protocol:
as §1, §2

Data set [6] can be described thus: Cation titration followed by absorbance or fluorescence excitation spectra: K⁺ binding. The note with it: 0.1 M tetramethylammonium chloride, 1-5 mM tris(hydroxymethyl)aminomethane, high pH; read-out: Dissociation constants (Kd) in mM for K⁺. How it is done:
as §1
Affinities for other cations were usually measured by titrating aqueous solutions of the indicator with metal chlorides added either as solid or from concentrated stock solutions, taking care to minimize dilution and correct for it. […] This convenient titration procedure had the slight disadvantage that the ionic strength was not constant, especially when large quantities of a salt had to be added due to weak affinities. […]

For data set [7] the following is noted: quinine bisulfate in 1 N H₂SO₄; assumed value; cited from earlier work.
Data set [8] can be described thus: Solubility in water for spectrophotometry. The class given is physicochemical.

Experimental for physchem: The lowest curve ([Na⁺] = 0) was obtained with 5 µM SBFI in 130 mM KCl, 10 mM MOPS, KOH to pH 7.05, approximately 135 mM total K⁺. The highest curve ([Na⁺] = 135 mM) was analogously recorded from 5 µM SBFI in 130 mM NaCl, 10 mM MOPS, NaOH to pH 7.05. The intermediate curves from 1.35 to 94.5 mM Na⁺ were obtained by successively 1/100, 1/99, 3/98, 1/19, 1/9, 1/4, and 1/2 of the K⁺-rich SBFI solution by the SBFI in Na medium. The excitation bandwidth was 1.85 nm; emission was collected at 500 nm with 9.3 nm bandwidth. […] The lowest curve was obtained in 130 mM NaCl, 10 mM MOPS, NaOH to pH 7.05. The highest curve was in 130 mM KCl, 10 mM MOPS, KOH to pH 7.05. The intermediate curves with 13.5 to 112.5 mM K⁺ were obtained by iteratively replacing 1/10, 1/9, 1/6, 1/4, 1/3, and 1/2 of the low K⁺ medium by the 135 mM KCl solution of PBFP.
Proton dissociation constants of the chelators were measured by spectrophotometry or spectrofluorometry of buffered solutions, containing either 100 mM tetramethylammonium chloride as inert supporting electrolyte, or 121.5 mM K⁺, 13.5 mM Na⁺, and 1 mM Mg²⁺ to simulate the cation environment of vertebrate cytoplasm (14). […] When the chelators contained two protonatable nitrogens, the curve of absorbance or fluorescence versus pH was analyzed by computerized least-squares fitting to the equations for two arbitrary proton equilibria (15), with the added assumption that the two protonations each caused the same change in extinction coefficient or fluorescence. This assumption was based on the presence of two identical chromophores in each chelator and produced good fits to the experimental data.

`COc1cc2cc(-c3ccc(C(=O)O)cc3C(=O)O)oc2cc1N1CCOCCOCCN(c2cc3oc(-c4ccc(C(=O)O)cc4C(=O)O)cc3cc2OC)CCOCCOCC1` [Compound 3PP]: the pKa in “physchem” came out at 5.78. In addition, the “Emission maxima -Na⁺” value in data set [1] (100 mM tetramethylammonium chloride, no Na⁺, not corrected for detector sensitivity) is on record as 545 nanometers. In [1] (no Na⁺, relative to quinine bisulfate in 1 N H₂SO₄ (0.55)), the “Quantum efficiency -Na⁺” value is “.024”. In data set [1] (saturating K⁺ rather than Na⁺), the “Emission maxima +Na⁺, footnote l” value was 504^l nanometers. Further, in [1] (saturating K⁺ rather than Na⁺), the “Quantum efficiency +Na⁺, footnote l” value is reported as “.072^l”. For the same compound, the equilibrium dissociation constant (Kd) came to 21 mM in data set [2], 16 mM in [3], 40 mM in [4] and 8 mM in [6]. In addition, in data set [5] (100 mM tetramethylammonium chloride plus 1-5 mM Tris, no Na⁺), the “Absorbance maxima -Na⁺ (wavelength)” value was determined as 350 nanometers. In [5] (number is 10⁻³ x the extinction coefficient, lower limits for most compounds, no Na⁺), this compound showed an Absorbance maxima -Na⁺ (extinction coefficient) of 42000 M⁻¹ cm⁻¹. Also, the Absorbance maxima +Na⁺, footnote l (extinction coefficient) in data set [5] (number is 10⁻³ x the extinction coefficient, saturating K⁺ rather than Na⁺) amounted to 42000 M⁻¹ cm⁻¹. In addition, the “Absorbance maxima +Na⁺, footnote l (wavelength)” value in [5] (saturating K⁺ rather than Na⁺) is 344 nanometers.

As to `C=C[C@H]1C[N@@]2CC[C@H]1C[C@H]2[C@H](O)c1ccnc2ccc(OC)cc12` [Quinine, quinine bisulfate], the “quantum efficiency of reference standard” value in data set [7] is listed as 0.55.

“N,N-bis-(1-acetamidoacridin-4-yl)-diaza[15]-crown-5 [Compound 2HH]”: in [8], the solubility in water result was “insufficiently soluble in water for spectrophotometry”.

Source of the values: patent EP0369733A2, “Fluorescent indicator dyes for alkali metal cations, their preparation and use” (THE REGENTS OF THE UNIVERSITY OF CALIFORNIA, priority 1988, dated 1990).
